Laboratory results from the NIST ThermoML archive (doi:10.1016/j.tca.2016.08.008).

O=P([O-])([O-])[O-].[Tb+3] [terbium orthophosphate]
101.33 kPa, Metastable crystal
Conditions | mass density [kg/m3] | molar entropy [J/K/mol]
7 K, Vacuum adiabatic calorimetry | – | 0.0744
8 K, Vacuum adiabatic calorimetry | – | 0.1113
9 K, Vacuum adiabatic calorimetry | – | 0.1586
10 K, Vacuum adiabatic calorimetry | – | 0.2174
12 K, Vacuum adiabatic calorimetry | – | 0.3747
14 K, Vacuum adiabatic calorimetry | – | 0.5915
16 K, Vacuum adiabatic calorimetry | – | 0.8724
18 K, Vacuum adiabatic calorimetry | – | 1.219
20 K, Vacuum adiabatic calorimetry | – | 1.627
25 K, Vacuum adiabatic calorimetry | – | 2.889
30 K, Vacuum adiabatic calorimetry | – | 4.414
35 K, Vacuum adiabatic calorimetry | – | 6.129
40 K, Vacuum adiabatic calorimetry | – | 7.99
45 K, Vacuum adiabatic calorimetry | – | 9.975
50 K, Vacuum adiabatic calorimetry | – | 12.07
55 K, Vacuum adiabatic calorimetry | – | 14.26
60 K, Vacuum adiabatic calorimetry | – | 16.53
70 K, Vacuum adiabatic calorimetry | – | 21.26
80 K, Vacuum adiabatic calorimetry | – | 26.15
90 K, Vacuum adiabatic calorimetry | – | 31.12
100 K, Vacuum adiabatic calorimetry | – | 36.12
110 K, Vacuum adiabatic calorimetry | – | 41.09
120 K, Vacuum adiabatic calorimetry | – | 46.02
130 K, Vacuum adiabatic calorimetry | – | 50.9
140 K, Vacuum adiabatic calorimetry | – | 55.72
150 K, Vacuum adiabatic calorimetry | – | 60.46
160 K, Vacuum adiabatic calorimetry | – | 65.13
170 K, Vacuum adiabatic calorimetry | – | 69.73
180 K, Vacuum adiabatic calorimetry | – | 74.26
190 K, Vacuum adiabatic calorimetry | – | 78.71
200 K, Vacuum adiabatic calorimetry | – | 83.09
210 K, Vacuum adiabatic calorimetry | – | 87.39
220 K, Vacuum adiabatic calorimetry | – | 91.63
230 K, Vacuum adiabatic calorimetry | – | 95.79
240 K, Vacuum adiabatic calorimetry | – | 99.88
250 K, Vacuum adiabatic calorimetry | – | 103.9
260 K, Vacuum adiabatic calorimetry | – | 107.9
270 K, Vacuum adiabatic calorimetry | – | 111.7
280 K, Vacuum adiabatic calorimetry | – | 115.6
290 K, Vacuum adiabatic calorimetry | – | 119.3
298 K, X-ray diffraction | 6088 | –
300 K, Vacuum adiabatic calorimetry | – | 123
310 K, Vacuum adiabatic calorimetry | – | 126.6
320 K, Vacuum adiabatic calorimetry | – | 130.2
325 K, Vacuum adiabatic calorimetry | – | 132
340 K, Small sample (50 mg) DSC | – | 137.1
360 K, Small sample (50 mg) DSC | – | 143.9
380 K, Small sample (50 mg) DSC | – | 150.4
400 K, Small sample (50 mg) DSC | – | 156.7
420 K, Small sample (50 mg) DSC | – | 162.7
440 K, Small sample (50 mg) DSC | – | 168.6
460 K, Small sample (50 mg) DSC | – | 174.3
480 K, Small sample (50 mg) DSC | – | 179.8
500 K, Small sample (50 mg) DSC | – | 185.2
520 K, Small sample (50 mg) DSC | – | 190.4
540 K, Small sample (50 mg) DSC | – | 195.4
560 K, Small sample (50 mg) DSC | – | 200.3
580 K, Small sample (50 mg) DSC | – | 205.1
600 K, Small sample (50 mg) DSC | – | 209.7
620 K, Small sample (50 mg) DSC | – | 214.2
640 K, Small sample (50 mg) DSC | – | 218.6
660 K, Small sample (50 mg) DSC | – | 222.8
680 K, Small sample (50 mg) DSC | – | 227
700 K, Small sample (50 mg) DSC | – | 231
720 K, Small sample (50 mg) DSC | – | 235
740 K, Small sample (50 mg) DSC | – | 238.8
760 K, Small sample (50 mg) DSC | – | 242.6
780 K, Small sample (50 mg) DSC | – | 246.2
800 K, Small sample (50 mg) DSC | – | 249.8
820 K, Small sample (50 mg) DSC | – | 253.3
840 K, Small sample (50 mg) DSC | – | 256.8
860 K, Small sample (50 mg) DSC | – | 260.1
880 K, Small sample (50 mg) DSC | – | 263.4
900 K, Small sample (50 mg) DSC | – | 266.7
920 K, Small sample (50 mg) DSC | – | 269.8
940 K, Small sample (50 mg) DSC | – | 272.9
960 K, Small sample (50 mg) DSC | – | 275.9
980 K, Small sample (50 mg) DSC | – | 278.9
1000 K, Small sample (50 mg) DSC | – | 281.8
1009 K, Small sample (50 mg) DSC | – | 283.1

Conditions | Triple point temperature [K]
Crystal 2, DSC | 1643
